ChEMBL document CHEMBL1129838, “Synthesis and pharmacological evaluation of sulfone substituted HIV protease inhibitors” (Bioorg Med Chem Lett, 1997)
Several values for one entry are separate records, joined by “and”; a condition that tells them apart may be missing. Equal entries are not always repeated.

What was measured:
[1] = molecular target: Human immunodeficiency virus type 1 protease (Human immunodeficiency virus 1, UniProt Q72874); assay: Inhibition of HIV-1 protease.
[2] = tested on: Human immunodeficiency virus 1; assay: Antiviral activity against HIV-1 IIIB in H9 (human leukemia) cells.; type: functional, organism-based
[3] = Human immunodeficiency virus 1, H9

Q: What does the source list for `O=c1cc(C(CC2CC2)CC2CC2)oc(O)c1C(c1cccc(CS(=O)(=O)c2ccccn2)c1)C1CC1` (centres undefined)?
A: Ki [1]: 2.3 nM; IC50 [2, 3]: 7700 nM

Q: With `Cn1ccnc1S(=O)(=O)Nc1cccc(C(c2c(O)cc(C(CC3CC3)CC3CC3)oc2=O)C2CC2)c1` (centres undefined) as the compound, how does the Ki [1] read?
A: 0.73 nM

Q: And the IC50 ([2]; h9)?
A: > 1000 nM and < 3000 nM

Q: With `O=c1c2c(oc(O)c1C(c1cccc(CS(=O)(=O)c3ccccn3)c1)C1CC1)CCCCCC2` (centres undefined) as the compound, how does the Ki [1] read?
A: 1.9 nM

Q: And the IC50 [2, 3]?
A: 10000 nM

Q: With `O=c1cc(C(CC2CC2)CC2CC2)oc(O)c1C(c1cccc(NS(=O)(=O)c2ccccn2)c1)C1CC1` (centres undefined) as the compound, how does the Ki [1] read?
A: 0.66 nM

Q: What about the IC50 ([2]; h9) of the same compound?
A: > 1000 nM and < 3000 nM

Q: For `O=c1c2c(oc(O)c1C(c1cccc(CS(=O)(=O)c3ccc(F)cc3)c1)C1CC1)CCCCCC2` (centres undefined), which Ki [1] is on record?
A: 2.1 nM

Q: What about the IC50 [2, 3] of the same compound?
A: 14500 nM

Q: Which results are given for `N#Cc1ccc(S(=O)(=O)Cc2cccc(C(c3c(O)oc4c(c3=O)CCCCCC4)C3CC3)c2)cc1` (centres undefined)?
A: Ki [1]: 1.9 nM; IC50 [2, 3]: 20500 nM

Q: For `O=C(O)c1ccc(S(=O)(=O)Cc2cccc(C(c3c(O)c4c(oc3=O)CCCCCC4)C3CC3)c2)cc1` (centres undefined), which Ki [1] is on record?
A: 7 nM

Q: And the IC50 [2, 3]?
A: > 30000 nM

Q: For `Cc1ccc(S(=O)(=O)Cc2cccc(C(c3c(O)c4c(oc3=O)CCCCCC4)C3CC3)c2)cc1` (centres undefined), which Ki [1] is on record?
A: 4.1 nM

Q: And the IC50 [2, 3]?
A: > 30000 nM

Q: `O=c1c2c(oc(O)c1C(c1cccc(CS(=O)(=O)c3ccccc3)c1)C1CC1)CCCCCC2` (centres undefined) was tested. Which Ki [1] did it give?
A: 6 nM

Q: What about the IC50 [2, 3] of the same compound?
A: > 30000 nM

Q: `O=c1cc(C(CC2CC2)CC2CC2)oc(O)c1C(c1cccc(CS(=O)(=O)c2ccc(F)cc2)c1)C1CC1` (centres undefined) was tested. Which Ki [1] did it give?
A: 19 nM

Q: And the IC50 [2, 3]?
A: 19800 nM

Q: How did the Ki [1] turn out when `Cn1ccnc1S(=O)(=O)Nc1cccc(C(c2c(O)c3c(oc2=O)CCCCCC3)C2CC2)c1` (centres undefined) was run?
A: 1.1 nM

Q: And the IC50 [2, 3]?
A: > 3000 nM

Q: For `O=c1c2c(oc(O)c1C(c1cccc(NS(=O)(=O)c3ccccc3)c1)C1CC1)CCCCCC2` (centres undefined), which IC50 [2, 3] is on record?
A: 5000 nM

Q: What does the source list for `O=c1c2c(oc(O)c1C(c1cccc(NS(=O)(=O)c3ccccn3)c1)C1CC1)CCCCCC2` (centres undefined)?
A: Ki [1]: 0.86 nM; IC50 [2, 3]: < 1000 nM

Q: How did the IC50 [2, 3] turn out when `O=C(O)c1ccc(S(=O)(=O)Nc2cccc(C(c3c(O)c4c(oc3=O)CCCCCC4)C3CC3)c2)cc1` (centres undefined) was run?
A: > 10000 nM

Q: With `N#Cc1ccc(S(=O)(=O)Nc2cccc(C(c3c(O)c4c(oc3=O)CCCCCC4)C3CC3)c2)cc1` (centres undefined) as the compound, how does the IC50 [2, 3] read?
A: 1500 nM

Q: For `O=c1c2c(oc(O)c1C(c1cccc(NS(=O)(=O)c3ccc(F)cc3)c1)C1CC1)CCCCCC2` (centres undefined), which IC50 [2, 3] is on record?
A: 2100 nM

Q: For `Cc1ccc(S(=O)(=O)Nc2cccc(C(c3c(O)c4c(oc3=O)CCCCCC4)C3CC3)c2)cc1` (centres undefined), which IC50 [2, 3] is on record?
A: 3600 nM

Q: With `Cn1ccnc1S(=O)(=O)Cc1cccc(C(c2c(O)c3c(oc2=O)CCCCCC3)C2CC2)c1` (centres undefined) as the compound, how does the Ki [1] read?
A: 3 nM

Q: And the IC50 [2, 3]?
A: 20400 nM

Q: Which results are given for `Cn1ccnc1S(=O)(=O)Cc1cccc(C(c2c(O)cc(C(CC3CC3)CC3CC3)oc2=O)C2CC2)c1` (centres undefined)?
A: Ki [1]: 3.1 nM; IC50 [2, 3]: 12000 nM

Q: With `O=c1cc(C(CC2CC2)CC2CC2)oc(O)c1C(c1cccc(NS(=O)(=O)c2ccc(F)cc2)c1)C1CC1` (centres undefined) as the compound, how does the IC50 [2, 3] read?
A: 2200 nM
